Tests used:
[1] = system: BT474 breast cancer cells; test: Orthotopic breast cancer xenograft model; type: in vivo, NOD/SCID mice; settings: trastuzumab or ADC Example 1 2.5 or 5 mg/kg; NMT inhibitor 1 2 mg/kg
Protocol: During the study, body weights were measured three times weekly for all animals. Animals were given Diet Gel for the entire duration on the study.

[2] = system: JIMT-1 human breast xenograft; test: JIMT-1 breast cancer xenograft model; type: in vivo
Source text: The study was terminated on the Study Day 60.

LNCaP tumours = test: LNCaP prostate cancer xenograft model; type: in vivo, male NOD SCID mice; settings: IV, Q7D (x3); for Tumour growth inhibition (TGI, %): day 28
Source text: Adjusted p value calculated by Kruskal-Wallis test and Dunn's multiple comparisons relative to vehicle control. […] C is the mean tumour volume of the control Group 1 mice on the measurement day and C0 is the mean tumour volume on Study Day 0.

[3] = system: VCaP human prostate cancer xenograft; test: VCaP prostate cancer xenograft model; type: in vivo, non-castrated male CB17/SCID mice
Protocol: The objective of this study was to evaluate preclinically the in vivo therapeutic efficacy of ADC Example 4 in the treatment of subcutaneous VCaP human prostate cancer xenograft model in non-castrated male CB17/SCID mice.
In this study, 144 mice were inoculated subcutaneously in the right front flank region with 1×10^7 viable VCaP tumour cells resuspended in 0.1 mL of PBS mixed with Matrigel (1:1) for tumour development on Study Day−20. 80 mice were assigned to 8 treatment groups when tumour volumes averaged ˜162.16 mm^3 on Study Day 0. Dosing commenced the following day and all animals were dosed intravenously with ADC Example 4, ifinatamab-deruxtecan (ifinatamab-Dxd) or unconjugated ifinatamab. All mice received two doses of test agent, on Study Day 1 and Study Day 8. The study was terminated on Study Day 30.

| Molecule | tumour volumes compared to vehicle alone ([2]; 2.5 mg/kg) | tumour volumes compared to vehicle alone ([2]; 5 mg/kg) | LNCaP tumour volume compared to vehicle control (LNCaP tumours; 5 mg/kg) | LNCaP tumour volume compared to vehicle control (LNCaP tumours; 10 mg/kg) | Tumour growth inhibition (TGI, %) (LNCaP tumours; 10 mg/kg) [%] | tumour volumes compared to vehicle alone ([3]; 2.5 mg/kg) | tumour volumes compared to vehicle alone ([3]; 5 mg/kg) | also measured |
| --- | --- | --- | --- | --- | --- | --- | --- | --- |
| CNCc1cnc2ccc(-c3ccc(F)c(F)c3OCCc3c(C(O)C(C)(C)C)nn(C)c3C)cn12 (centres unmarked) [NMT inhibitor 1, 1-(4-(2-(2,3-difluoro-6-(3-((methylamino)methyl)imidazo[1,2-a]pyridin-6-yl)phenoxy)ethyl)-1,5-dimethyl-1H-pyrazol-3-yl)-2,2-dimethylpropan-1-ol] |  |  |  |  |  |  |  | body weights of mice compared to vehicle control [1]: decreased significantly |
| sacituzumab | no significant difference | significant decrease |  |  |  |  |  |  |
| sacituzumab govitecan [reference compound] | significant decrease | significant decrease |  |  |  |  |  |  |
| ifinatamab |  |  | no significant effect | no significant effect | 13.0 | no significant difference | no significant difference |  |
| ifinatamab-DXd: ifinatamab-deruxtecan, comparator ADC (conjugate, chains of the INN, looked up, deruxtecan (DXd) payload, ifinatamab-deruxtecan, comparator ADC) VH: QVQLVQSGAEVKKPGSSVKVSCKASGYTFTNYVMHWVRQAPGQGLEWMGYINPYNDDVKYNEKFKGRVTITADESTSTAYMELSSLRSEDTAVYYCARWGYYGSPLYYFDYWGQGTLVTVSS VL: EIVLTQSPATLSLSPGERATLSCRASSRLIYMHWYQQKPGQAPRPLIYATSNLASGIPARFSGSGSGTDFTLTISSLEPEDFAVYYCQQWNSNPPTFGQGTKVEIK |  |  | slowed the growth of LNCaP tumours to a lesser extent | significantly reduced the mean volume of LNCaP tumours | 75.0 | no significant difference | significantly higher tumour volume | Day 28 tumour volume (mm^3, mean ± SEM) (LNCaP tumours; 5 mg/kg): 364.6 ± 51.7 mm^3; Tumour growth inhibition (TGI, %) (LNCaP tumours; 5 mg/kg): 58.8%; Day 28 tumour volume (mm^3, mean ± SEM) (LNCaP tumours; 10 mg/kg): 259.5 ± 50.3 mm^3; ΔTGI (Study Day 17) ([3]; 2.5 mg/kg IV QW × 2 weeks): 5.24%; ΔTGI (Study Day 17) ([3]; 5 mg/kg IV QW × 2 weeks): 2.86% |

Reference: US20260166170A1, “ANTIBODY DRUG CONJUGATE COMPRISING NMT INHIBITOR AND ITS USE” (MyricX Pharma Limited, priority 2022, published 2026)
